Results as given in paper PMC11284792, “Backbone-Determined Antiarrhythmic Structure–Activity Relationships for a Mirror Image, Oligomeric Depsipeptide Natural Product” (Journal of Medicinal Chemistry, 2024).
Entries after “also recorded” stand apart in the source; their conditions may differ. Where two headings read alike, the source gives them in different places.

Key:
[1] = molecular target: T1, RyR2 (Mus musculus, UniProt E9Q401); assay: Calcium spark assay in saponin-permeabilized ventricular cardiomyocytes; assay type: cell-based, mouse (C57BL/6J); settings: for Normalized Calcium Leak: CSV supplement, Series 2-5; for Normalized Calcium Leak / Calcium spark Amplitude (normalized to vehicle) / Calcium spark Leak (normalized to vehicle) / Calcium spark Mass (normalized to vehicle) / Calcium spark Frequency (normalized to vehicle): 25 μM drug, normalized to vehicle (DMSO), mean ± standard deviation; for Calcium spark Amplitude (normalized to vehicle) / Calcium spark Leak (normalized to vehicle) / Calcium spark Mass (normalized to vehicle) / Calcium spark Frequency (normalized to vehicle): Supplement Tables 2-3; for Calcium spark Amplitude (normalized to vehicle) / Calcium spark Leak (normalized to vehicle) / Calcium spark Mass (normalized to vehicle): permeabilized murine cardiomyocytes; for Calcium spark Frequency (normalized to vehicle): permeabilized murine left ventricular myocytes, 15 min incubation; for Inhibition of RyR2-mediated calcium sparks (in words): spark frequency after 15 min incubation with 25 μM compound, permeabilized myocytes
T1 construct: ventricular cardiomyocytes were isolated from C57Bl/6J mice, adhered to laminin-coated glass bottom culture dishes, permeabilized with saponin; endogenous in cells; host or cells: left ventricular cardiomyocytes freshly isolated from C57BL/6J mice, saponin-permeabilized
T1 sequence (E9Q401 whole entry): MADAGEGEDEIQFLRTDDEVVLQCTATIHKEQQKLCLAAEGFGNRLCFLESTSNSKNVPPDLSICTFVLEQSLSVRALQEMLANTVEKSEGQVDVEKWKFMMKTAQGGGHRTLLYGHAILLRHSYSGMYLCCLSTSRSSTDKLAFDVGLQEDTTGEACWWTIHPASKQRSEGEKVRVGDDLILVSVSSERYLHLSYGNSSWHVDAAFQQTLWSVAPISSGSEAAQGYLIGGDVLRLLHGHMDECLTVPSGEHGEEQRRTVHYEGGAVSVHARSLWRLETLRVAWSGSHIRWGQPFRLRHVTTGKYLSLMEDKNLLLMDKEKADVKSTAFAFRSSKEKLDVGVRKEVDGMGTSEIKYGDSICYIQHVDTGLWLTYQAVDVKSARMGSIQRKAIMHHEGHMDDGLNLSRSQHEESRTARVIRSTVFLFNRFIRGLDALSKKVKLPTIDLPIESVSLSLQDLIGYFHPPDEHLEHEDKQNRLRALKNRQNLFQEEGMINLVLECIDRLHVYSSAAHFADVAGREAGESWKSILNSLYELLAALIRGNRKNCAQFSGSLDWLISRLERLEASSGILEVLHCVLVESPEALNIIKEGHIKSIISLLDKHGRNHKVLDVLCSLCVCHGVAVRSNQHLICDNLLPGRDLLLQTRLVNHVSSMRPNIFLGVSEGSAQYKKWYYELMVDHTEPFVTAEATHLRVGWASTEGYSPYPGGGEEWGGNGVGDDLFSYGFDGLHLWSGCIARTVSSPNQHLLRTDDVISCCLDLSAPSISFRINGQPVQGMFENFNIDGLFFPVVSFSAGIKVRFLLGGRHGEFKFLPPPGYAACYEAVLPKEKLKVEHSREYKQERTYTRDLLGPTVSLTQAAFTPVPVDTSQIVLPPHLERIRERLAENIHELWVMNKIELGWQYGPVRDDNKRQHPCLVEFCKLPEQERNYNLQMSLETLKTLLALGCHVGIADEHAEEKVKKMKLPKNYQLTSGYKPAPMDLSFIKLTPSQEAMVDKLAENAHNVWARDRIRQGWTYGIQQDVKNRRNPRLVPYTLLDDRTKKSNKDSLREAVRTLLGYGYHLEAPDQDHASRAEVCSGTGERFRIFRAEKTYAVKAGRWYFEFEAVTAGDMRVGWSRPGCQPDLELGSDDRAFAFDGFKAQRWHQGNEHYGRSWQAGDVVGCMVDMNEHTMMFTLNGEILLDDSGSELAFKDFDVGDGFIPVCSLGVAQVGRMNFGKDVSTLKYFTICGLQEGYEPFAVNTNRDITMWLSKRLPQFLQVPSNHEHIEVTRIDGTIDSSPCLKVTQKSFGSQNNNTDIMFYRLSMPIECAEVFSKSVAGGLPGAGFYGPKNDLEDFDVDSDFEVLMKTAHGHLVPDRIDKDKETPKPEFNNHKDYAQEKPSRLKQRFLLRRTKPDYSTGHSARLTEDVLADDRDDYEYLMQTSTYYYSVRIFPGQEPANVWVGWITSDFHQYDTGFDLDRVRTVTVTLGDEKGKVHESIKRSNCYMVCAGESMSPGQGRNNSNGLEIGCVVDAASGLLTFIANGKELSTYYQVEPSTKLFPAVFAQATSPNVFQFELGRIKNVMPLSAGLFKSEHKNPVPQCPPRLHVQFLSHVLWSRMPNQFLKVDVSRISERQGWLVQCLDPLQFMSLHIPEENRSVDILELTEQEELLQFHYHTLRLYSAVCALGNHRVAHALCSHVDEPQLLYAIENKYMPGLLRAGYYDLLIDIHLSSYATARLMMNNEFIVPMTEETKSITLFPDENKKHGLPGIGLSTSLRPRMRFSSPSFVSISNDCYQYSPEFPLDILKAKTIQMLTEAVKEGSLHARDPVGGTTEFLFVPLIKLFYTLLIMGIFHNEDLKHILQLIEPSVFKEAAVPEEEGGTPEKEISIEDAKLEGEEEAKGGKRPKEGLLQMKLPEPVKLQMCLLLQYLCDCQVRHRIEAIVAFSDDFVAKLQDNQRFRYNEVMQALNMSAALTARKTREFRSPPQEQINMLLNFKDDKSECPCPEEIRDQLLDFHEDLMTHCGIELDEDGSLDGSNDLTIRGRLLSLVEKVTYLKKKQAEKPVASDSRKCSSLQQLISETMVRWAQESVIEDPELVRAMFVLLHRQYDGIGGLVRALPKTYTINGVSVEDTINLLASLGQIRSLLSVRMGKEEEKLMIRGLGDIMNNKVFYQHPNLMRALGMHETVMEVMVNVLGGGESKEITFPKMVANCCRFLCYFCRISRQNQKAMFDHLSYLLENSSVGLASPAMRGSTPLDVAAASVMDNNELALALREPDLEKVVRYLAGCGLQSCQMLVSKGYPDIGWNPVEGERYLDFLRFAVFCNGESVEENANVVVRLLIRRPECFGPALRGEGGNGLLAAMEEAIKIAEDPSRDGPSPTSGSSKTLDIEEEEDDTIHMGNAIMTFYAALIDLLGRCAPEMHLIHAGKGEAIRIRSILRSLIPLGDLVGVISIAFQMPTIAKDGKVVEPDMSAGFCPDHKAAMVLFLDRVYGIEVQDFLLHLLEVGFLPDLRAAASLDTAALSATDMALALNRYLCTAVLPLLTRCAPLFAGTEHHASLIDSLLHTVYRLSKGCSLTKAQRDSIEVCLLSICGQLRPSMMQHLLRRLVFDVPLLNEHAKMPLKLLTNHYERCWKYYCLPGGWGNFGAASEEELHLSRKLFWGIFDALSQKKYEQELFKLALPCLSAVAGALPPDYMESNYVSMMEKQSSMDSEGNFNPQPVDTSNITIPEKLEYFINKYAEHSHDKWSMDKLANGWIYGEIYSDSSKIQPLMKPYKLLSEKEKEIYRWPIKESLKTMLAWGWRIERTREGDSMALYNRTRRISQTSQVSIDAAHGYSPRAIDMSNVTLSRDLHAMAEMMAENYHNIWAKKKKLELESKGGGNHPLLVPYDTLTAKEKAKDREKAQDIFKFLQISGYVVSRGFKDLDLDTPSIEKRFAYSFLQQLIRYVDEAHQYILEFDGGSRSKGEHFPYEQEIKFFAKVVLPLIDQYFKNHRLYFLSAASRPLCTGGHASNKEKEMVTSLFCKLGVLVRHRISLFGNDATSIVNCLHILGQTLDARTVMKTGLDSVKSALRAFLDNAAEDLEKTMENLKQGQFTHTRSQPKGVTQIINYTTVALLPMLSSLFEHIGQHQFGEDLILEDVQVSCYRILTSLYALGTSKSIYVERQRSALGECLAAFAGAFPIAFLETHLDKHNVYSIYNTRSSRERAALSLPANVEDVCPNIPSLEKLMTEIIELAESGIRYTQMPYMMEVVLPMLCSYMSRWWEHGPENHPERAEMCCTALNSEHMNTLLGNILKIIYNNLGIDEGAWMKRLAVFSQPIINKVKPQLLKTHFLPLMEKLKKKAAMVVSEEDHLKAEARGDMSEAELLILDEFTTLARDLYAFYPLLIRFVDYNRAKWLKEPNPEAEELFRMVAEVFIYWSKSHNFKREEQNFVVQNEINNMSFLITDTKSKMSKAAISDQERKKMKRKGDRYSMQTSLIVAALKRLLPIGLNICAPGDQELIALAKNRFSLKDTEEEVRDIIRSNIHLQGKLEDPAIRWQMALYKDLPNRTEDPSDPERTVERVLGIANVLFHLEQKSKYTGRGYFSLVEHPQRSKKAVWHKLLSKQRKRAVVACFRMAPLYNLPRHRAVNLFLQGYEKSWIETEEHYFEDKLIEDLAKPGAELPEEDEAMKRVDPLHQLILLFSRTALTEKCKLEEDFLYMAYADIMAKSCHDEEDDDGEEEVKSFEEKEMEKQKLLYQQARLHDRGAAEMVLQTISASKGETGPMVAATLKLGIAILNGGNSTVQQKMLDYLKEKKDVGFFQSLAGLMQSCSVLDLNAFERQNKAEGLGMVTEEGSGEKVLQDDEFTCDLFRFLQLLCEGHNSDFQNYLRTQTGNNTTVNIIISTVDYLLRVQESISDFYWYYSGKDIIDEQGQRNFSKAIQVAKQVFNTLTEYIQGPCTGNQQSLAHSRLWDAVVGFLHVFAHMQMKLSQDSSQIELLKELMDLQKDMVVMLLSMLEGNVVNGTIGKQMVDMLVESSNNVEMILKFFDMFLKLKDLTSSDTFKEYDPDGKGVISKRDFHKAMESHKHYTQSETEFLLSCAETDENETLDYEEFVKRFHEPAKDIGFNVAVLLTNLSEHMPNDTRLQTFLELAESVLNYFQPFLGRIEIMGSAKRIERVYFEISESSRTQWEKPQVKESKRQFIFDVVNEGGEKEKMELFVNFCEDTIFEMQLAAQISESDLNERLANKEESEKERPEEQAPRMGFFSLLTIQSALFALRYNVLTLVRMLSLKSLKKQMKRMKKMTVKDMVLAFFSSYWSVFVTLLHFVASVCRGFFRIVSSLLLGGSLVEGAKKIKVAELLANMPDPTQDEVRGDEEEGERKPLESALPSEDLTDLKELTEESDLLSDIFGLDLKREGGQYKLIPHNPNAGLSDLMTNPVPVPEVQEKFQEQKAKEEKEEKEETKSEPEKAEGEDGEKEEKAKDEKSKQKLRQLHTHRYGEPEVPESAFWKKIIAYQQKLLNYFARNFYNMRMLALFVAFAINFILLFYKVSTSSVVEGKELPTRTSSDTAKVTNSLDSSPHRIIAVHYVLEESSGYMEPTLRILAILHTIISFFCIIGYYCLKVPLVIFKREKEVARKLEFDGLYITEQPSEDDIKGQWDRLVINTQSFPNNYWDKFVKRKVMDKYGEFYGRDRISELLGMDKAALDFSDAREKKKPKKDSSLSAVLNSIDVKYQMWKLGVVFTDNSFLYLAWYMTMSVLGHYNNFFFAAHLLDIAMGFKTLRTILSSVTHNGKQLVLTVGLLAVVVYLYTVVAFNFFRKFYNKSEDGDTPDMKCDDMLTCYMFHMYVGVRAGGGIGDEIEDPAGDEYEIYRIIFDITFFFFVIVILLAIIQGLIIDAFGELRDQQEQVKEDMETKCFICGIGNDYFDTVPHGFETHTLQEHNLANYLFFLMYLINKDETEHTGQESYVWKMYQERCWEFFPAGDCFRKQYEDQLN
Description: With a wide range of ent-verticilide analogs in hand, organized by five series that systematically change the backbone functionality without modifying the alternating methyl and pentyl side chains, we pursued their evaluation in the calcium sparks assay for insight into potential antiarrhythmic activity.[3] Left ventricular myocytes were isolated from C57BL/6J mice and subjected to brief incubation with saponin, which permeabilizes the sarcolemma and enables equivalent access of compounds to RyR2, irrespective of their permeability.[14] Cardiomyocytes were then incubated in an internal solution designed to promote spontaneous RyR2-mediated calcium release events, known as sparks,[34] and the spark frequency was recorded following a 15 min incubation with 25 μM of each compound. Figure 3 summarizes these findings; no inhibition of RyR2 (lack of activity) is reflected as a value of 1 (dotted line). […] In that study, we noted that the 18-membered oligomer was more forgiving. […] Series 4–5 analogs produced nearly flat SAR, with no notable inhibition by any of the analogs.
Figure 3 RyR2-mediated calcium spark frequency in permeabilized left ventricular myocytes incubated with 25 μM drug for 15 min. All data normalized to vehicle (DMSO) condition. […] (A) *P < 0.0001 vs vehicle. N = 29 (2), 102 (5), 105 (5), 108 (5), 119 (4), and 87 cells (mice). Previously reported in Johnston et al. ACS Med. Chem. Lett., 2022, 13(11), 1755–1762. (B) *P < 0.0001 vs vehicle. # P = 0.00041 vs vehicle. N = 38, 46, 54, 50, and 50 cells, respectively, from 2 mice. (C) *P < 0.0001 vs vehicle. # P = 0.034 vs vehicle. N = 79 (4), 58 (3), 79 (4), 80 (5), and 91 (5) cells (mice). (D) P > 0.05 for all groups vs vehicle. N = 66 (4), 42 (2), 37 (2), 38 (2), 43(2), and 37 (2) cells (mice). (E) *P < 0.0001 vs vehicle. N = 66 (4), 85 (5), 93 (5), 100 (5), 89 (5), and 67 (4) cells (mice).
Calcium spark measurements were made, as previously described.[5] Briefly, ventricular cardiomyocytes were isolated from C57Bl/6J mice, adhered to laminin-coated glass bottom culture dishes, permeabilized with saponin, and incubated with an internal solution containing the calcium sensitive dye, Fluo-4. Elementary spark recordings were made using an Olympus inverted microscope equipped with a solid-state diode laser at 488 nm for excitation, 40× silicone objective (1.25 NA), and Hamamatsu CMOS camera for detection. Spark detection analysis was performed using SparkMaster2.[37]
Statistical analysis was carried out in R using a hierarchical clustering model to cluster data by experiment and account for mouse-to-mouse variability.[38] A cutoff value of 0.05 was used as the threshold to reject the null hypothesis. The numbers of cells and replicates (mice) are indicated in the figure legend for each compound.
Johnston et al. Supporting Information […]
of 0.05 was used as the threshold to reject the null hypothesis.
Safety: No unexpected or unusually high safety hazards were encountered.
Biological Experiment Data: Calcium spark parameters
For all series, assay is run with 25 μM solution of drug. Values are normalized to the vehicle (DMSO) condition and reported as mean ± standard deviation. Statistical comparisons were made using a hierarchical clustering model with Bonferroni correction. Adjusted p-values < 0.05 vs vehicle are indicated with an asterisk. Each mouse was an independent experiment, the replicates are listed as n (cells).
Supplement Table 1. Calcium spark parameters from murine cardiomyocytes for ent-verticilide and series 1 analogs.
Supplement Table 2. Calcium spark parameters from murine cardiomyocytes for series 2 analogs.
Supplement Table 3. Calcium spark parameters from murine cardiomyocytes for series 3 analogs. […]
Cardiovasc. Res.

[2] = amide bond, 24-membered ring, 3 steps
[3] = the molecule shown is the open-chain precursor

## (3R,6S,9R,12S,15R,18S,21R,24S)-1,3,4,7,9,10,13,15,16,19,21-undecamethyl-6,12,18,24-tetrapentyl-1,4,7,10,13,16,19,22-octaazacyclotetracosan-2,5,8,11,14,17,20,23-octaone [4.2]
[1]
  Normalized Calcium Leak: 1.35 ± 1.14

## H-dAla-Hhp-dAla-Hhp-dAla-Hhp-dAla-Hhp-OH
[2]; [3]
  ring closure, yield after HPLC: 12%

## (3S,6R,9S,12R,15S,18R,21S,24R)-1,6,7,12,13,18,19,24-Octamethyl-3,9,15,21-tetrapentyl-1,4,7,10,13,16,19,22-octaazacyclotetracosan-2,5,8,11,14,17,20,23-octaone
[2]; PyBOP/DIEA, DMF, 4.6 mM, 0.0 °C
  ring closure, yield after HPLC: 11%

## (3R,6S,9R,12S,15R,18S,21R,24S)-3,4,7,9,10,15,16,19,21,22-decamethyl-6,12,18,24-tetrapentyl-1,13-dioxa-4,7,10,16,19,22-hexaazacyclotetracosan-2,5,8,11,14,17,20,23-octaone [3.3]
[1]
  Normalized Calcium Leak: 0.93 ± 0.45
  Calcium spark Amplitude (normalized to vehicle): 1.00 ± 0.16
  Calcium spark Leak (normalized to vehicle): 0.93 ± 0.45
  Calcium spark Mass (normalized to vehicle): 0.96 ± 0.42
  Calcium spark Frequency (normalized to vehicle): 0.96 ± 0.26

## H-dMeAla-Hhp-dMeAla-Ahp-dMeAla-Ahp-dMeAla-Ahp-OH?
[2]; [3]
  ring closure, yield after HPLC: 7%

## H-dMeAla-MeAhp-dAla-MeAhp-dAla-MeAhp-dAla-MeAhp-OH
[2]; [3]
  ring closure, yield after HPLC: 5%

## H-dMeAla-Ahp-dMeAla-Hhp-dMeAla-Ahp-dMeAla-Hhp-OH
[2]; [3]
  ring closure, yield after HPLC: 10%

## (3S,6R,9S,12R,15S,18R,21S,24R)-1,4,6,7,12,13,16,18,19,24-decamethyl-3,9,15,21-tetrapentyl-1,4,7,10,13,16,19,22-octaazacyclotetracosan-2,5,8,11,14,17,20,23-octaone [5.4]
[1]
  Normalized Calcium Leak: 1.14 ± 0.69

## (3S,6R,9S,12R,15S,18R,21S,24R)-1,4,6,7,10,12,13,16,18,19,24-undecamethyl-3,9,15,21-tetrapentyl-1,4,7,10,13,16,19,22-octaazacyclotetracosan-2,5,8,11,14,17,20,23-octaone [5.2]
[1]
  Normalized Calcium Leak: 1.08 ± 0.66

## (3R,6S,9R,12S,15R,18S,21R,24S)-1,3,7,9,13,15,19,21-octamethyl-6,12,18,24-tetrapentyl-1,4,7,10,13,16,19,22-octaazacyclotetracosan-2,5,8,11,14,17,20,23-octaone [4.6]
[1]
  Normalized Calcium Leak: 1.15 ± 0.71

## (3S,6R,9S,12R,15S,18R,21S,24R)-1,6,7,12,13,18,19,24-Octamethyl-3,9,15,21-tetrapentyl-1,4,7,10,13,16,19,22-octaazacyclotetracosan-2,5,8,11,14,17,20,23-octaone [2.5]
[1]
  Normalized Calcium Leak: 1.09 ± 0.46
  Calcium spark Amplitude (normalized to vehicle): 1.17 ± 0.34
  Calcium spark Leak (normalized to vehicle): 1.09 ± 0.46
  Calcium spark Mass (normalized to vehicle): 1.06 ± 0.35
  Calcium spark Frequency (normalized to vehicle): 1.04 ± 0.20

## (3R,6S,9R,12S,15R,18S,21R,24S)-3,4,9,10,15,16,21,22-octamethyl-6,12,18,24-tetrapentyl-1,13-dioxa-4,7,10,16,19,22-hexaazacyclotetracosan-2,5,8,11,14,17,20,23-octaone [2.3]
[1]
  Normalized Calcium Leak: 1.03 ± 0.53
  Calcium spark Amplitude (normalized to vehicle): 0.92 ± 0.19
  Calcium spark Leak (normalized to vehicle): 1.03 ± 0.53
  Calcium spark Mass (normalized to vehicle): 1.02 ± 0.43
  Calcium spark Frequency (normalized to vehicle): 1.01 ± 0.20

## (3R,6S,9R,12S,15R,18S,21R,24S)-3,4,9,10,15,16,21,22-octamethyl-6,12,18,24-tetrapentyl-1,7,13-trioxa-4,10,16,19,22-pentaazacyclotetracosan-2,5,8,11,14,17,20,23-octaone [2.1]
[1]
  Normalized Calcium Leak: 0.60 ± 0.65
  Calcium spark Amplitude (normalized to vehicle): 0.93 ± 0.31
  Calcium spark Leak (normalized to vehicle): 0.60 ± 0.65
  Calcium spark Mass (normalized to vehicle): 1.04 ± 0.64
  Calcium spark Frequency (normalized to vehicle): 0.51 ± 0.25
  Inhibition of RyR2-mediated calcium sparks (in words): modest potency; also recorded: measurable activity

## (3R,6S,9R,12S,15R,18S,21R,24S)-3,4,9,10,15,16,21,22-octamethyl-6,12,18,24-tetrapentyl-1-oxa-4,7,10,13,16,19,22-heptaazacyclotetracosan-2,5,8,11,14,17,20,23-octaone [2.4]
[1]
  Normalized Calcium Leak: 0.97 ± 0.56
  Calcium spark Amplitude (normalized to vehicle): 1.08 ± 0.22
  Calcium spark Leak (normalized to vehicle): 0.97 ± 0.56
  Calcium spark Mass (normalized to vehicle): 0.98 ± 0.39
  Calcium spark Frequency (normalized to vehicle): 0.97 ± 0.17

## (3S,6R,9S,12R,15S,18R,21S,24R)-1,4,6,7,12,13,18,19,24-nonamethyl-3,9,15,21-tetrapentyl-1,4,7,10,13,16,19,22-octaazacyclotetracosan-2,5,8,11,14,17,20,23-octaone [5.5]
[1]
  Normalized Calcium Leak: 1.14 ± 0.65

## (3R,6S,9R,12S,15R,18S,21R,24S)-1,3,4,7,9,13,15,19,21-nonamethyl-6,12,18,24-tetrapentyl-1,4,7,10,13,16,19,22-octaazacyclotetracosan-2,5,8,11,14,17,20,23-octaone [4.5]
[1]
  Normalized Calcium Leak: 1.43 ± 0.66

## (3R,6S,9R,12S,15R,18S,21R,24S)-3,4,9,10,13,15,16,19,21,22-decamethyl-6,12,18,24-tetrapentyl-1,7-dioxa-4,10,13,16,19,22-hexaazacyclotetracosan-2,5,8,11,14,17,20,23-octaone [3.2]
[1]
  Normalized Calcium Leak: 0.99 ± 0.53
  Calcium spark Amplitude (normalized to vehicle): 1.02 ± 0.20
  Calcium spark Leak (normalized to vehicle): 0.99 ± 0.53
  Calcium spark Mass (normalized to vehicle): 1.03 ± 0.50
  Calcium spark Frequency (normalized to vehicle): 0.97 ± 0.28

## (3R,6S,9R,12S,15R,18S,21R,24S)-3,4,9,10,15,16,19,21,22-nonamethyl-6,12,18,24-tetrapentyl-1,7,13-trioxa-4,10,16,19,22-pentaazacyclotetracosan-2,5,8,11,14,17,20,23-octaone [3.1]
[1]
  Normalized Calcium Leak: 0.75 ± 0.63
  Calcium spark Amplitude (normalized to vehicle): 0.99 ± 0.20
  Calcium spark Leak (normalized to vehicle): 0.75 ± 0.63
  Calcium spark Mass (normalized to vehicle): 0.81 ± 0.55
  Calcium spark Frequency (normalized to vehicle): 0.79 ± 0.29
  Inhibition of RyR2-mediated calcium sparks (in words): partial inhibition, but less so than analog 2.1; also recorded: measurable activity

## (3S,6R,9S,12R,15S,18R,21S,24R)-1,4,6,7,10,12,13,18,19,24-decamethyl-3,9,15,21-tetrapentyl-1,4,7,10,13,16,19,22-octaazacyclotetracosan-2,5,8,11,14,17,20,23-octaone [5.3]
[1]
  Normalized Calcium Leak: 1.23 ± 0.57
